The numbers were not newly measured in patent US6685969B2, “Treatment for ectoparasites” (Schering-Plough HealthCare Products, Inc., priority 2001, dated 2004), which cites them from elsewhere.

This series has as its system Head Lice. The settings on record: comparison of published results.

`CC1(C)C(C=C(Cl)Cl)C1C(=O)OCc1cccc(Oc2ccccc2)c1` (stereo not shown) [Permethrin]: the “Evidence of efficacy among topical pesticidal treatments” value was “sufficient evidence of efficacy”.
